From US11497212B2, “Substituted thiophenyl uracils, salts thereof and the use thereof as herbicidal agents” (Syngenta Crop Protection AG, priority 2017, dated 2022)

What was measured:
Type in all cases: in vivo
[1] = test system: Matricaria inodora; test: Herbicidal action post-emergence (greenhouse pot trial); conditions: application rate 20 g/ha, scored visually after about 3 weeks vs untreated controls
Outline: (§1)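 Post-emergence spray at one-leaf stage (2–3 wk after sowing, sandy loam, greenhouse); WP/EC in water + 0.5% additive; 600 L/ha; rate 80 g/ha or less. Visual % efficacy at ~3 wk vs untreated (100 = dead).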

[2] = test system: Setaria viridis; test: as above; conditions: application rate 20 g/ha, scored visually after about 3 weeks vs untreated controls
Outline: as §1

[3] = test system: Echinochloa crus-galli; test: as above; conditions: application rate 20 g/ha, scored visually after about 3 weeks vs untreated controls
Outline: as §1

[4] = test system: Stellaria media; test: as above; conditions: application rate 20 g/ha, scored visually after about 3 weeks vs untreated controls
Outline: as §1

[5] = test system: Pharbitis purpurea; test: as above; conditions: application rate 20 g/ha
Outline: as §1

[6] = test system: Viola tricolor; test: as above; conditions: application rate 20 g/ha
Outline: as §1

[7] = test system: Lolium rigidum; test: as above; conditions: application rate 20 g/ha, scored visually after about 3 weeks vs untreated controls
Outline: as §1

[8] = test system: Amaranthus retroflexus; test: as above; conditions: application rate 20 g/ha, scored visually after about 3 weeks vs untreated controls
Outline: as §1

[9] = test system: Digitaria sanguinalis; test: as above; conditions: application rate 20 g/ha
Outline: as §1

[10] = test system: Veronica persica; test: as above; conditions: application rate 20 g/ha
Outline: as §1

[11] = test system: Polygonum convolvulus; test: as above; conditions: application rate 20 g/ha, scored visually after about 3 weeks vs untreated controls
Outline: as §1

[12] = test system: Abutilon theophrasti; test: as above; conditions: application rate 20 g/ha, scored visually after about 3 weeks vs untreated controls
Outline: as §1

[13] = test system: Triticum aestivum; test: Crop compatibility post-emergence (greenhouse pot trial)
Outline: (§2)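 Crop seeds sown in sandy loam and grown in the greenhouse 2 to 3 weeks were treated at the one-leaf stage. WP or EC formulations were sprayed as aqueous suspension/emulsion with 0.5% additive at 600 L/ha. Damage was scored visually about 3 weeks later versus untreated controls (0% = like control, 100% = dead).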

[14] = test system: Alopecurus myosuroides; test: Herbicidal action post-emergence (greenhouse pot trial); conditions: application rate 20 g/ha, scored visually after about 3 weeks vs untreated controls
Outline: as §1

[15] = test system: Glycine max; test: Crop compatibility pre-emergence (greenhouse pot trial); conditions: application rate 80 g/ha, effect vs untreated controls
Source text: (§3) Seeds of mono- and dicotyledonous weeds and crop plants were laid out in plastic or organic plant pots and covered with soil. The compounds of the invention formulated in the form of wettable powders (WP) or emulsion concentrates (EC) were then applied to the surface of the covering soil as an aqueous suspension or emulsion with addition of 0.5% additive at a water application rate equivalent to 600 L/ha. After the treatment, the pots were placed in a greenhouse and kept under good growth conditions for the test plants. After about 3 weeks, the efficacy of the preparations was scored visually as a percentage by comparison with untreated controls. For example, 100% efficacy=plants have died, 0% efficacy=like control plants.
(§4) Crop compatibilities were also scored correspondingly.
(§5) The effects observed are reported here on selected crop plants by comparison with the untreated controls (values in %).

[16] = test system: Zea mays; test: as above; conditions: application rate 80 g/ha, effect vs untreated controls
Source text: as §3, §4, §5

[17] = test system: Matricaria inodora; test: Herbicidal action pre-emergence (greenhouse pot trial); conditions: application rate 80 g/ha, scored after about 3 weeks
Source text: as §3, with “control plants. Tables B1 to B16 below show the efficacies of selected compounds of the general formula (I) according to tables I.1 to I.60 on various harmful plants and an application rate corresponding to 320 g/ha or lower that were obtained by the aforementioned trial method.” for “control plants.”

[18] = test system: Viola tricolor; test: as above; conditions: application rate 80 g/ha, scored after about 3 weeks
Source text: as §3, with “control plants. Tables B1 to B16 below show the efficacies of selected compounds of the general formula (I) according to tables I.1 to I.60 on various harmful plants and an application rate corresponding to 320 g/ha or lower that were obtained by the aforementioned trial method.” for “control plants.”

[19] = test system: Amaranthus retroflexus; test: as above; conditions: application rate 80 g/ha, scored after about 3 weeks
Source text: as §3, with “control plants. Tables B1 to B16 below show the efficacies of selected compounds of the general formula (I) according to tables I.1 to I.60 on various harmful plants and an application rate corresponding to 320 g/ha or lower that were obtained by the aforementioned trial method.” for “control plants.”

[20] = test system: Veronica persica; test: as above; conditions: application rate 80 g/ha
Source text: as §3, with “control plants. Tables B1 to B16 below show the efficacies of selected compounds of the general formula (I) according to tables I.1 to I.60 on various harmful plants and an application rate corresponding to 320 g/ha or lower that were obtained by the aforementioned trial method.” for “control plants.”

[21] = test system: Abutilon theophrasti; test: as above; conditions: application rate 80 g/ha, scored after about 3 weeks
Source text: as §3, with “control plants. Tables B1 to B16 below show the efficacies of selected compounds of the general formula (I) according to tables I.1 to I.60 on various harmful plants and an application rate corresponding to 320 g/ha or lower that were obtained by the aforementioned trial method.” for “control plants.”

[22] = test system: Oryza sativa; test: Crop compatibility post-emergence (greenhouse pot trial); conditions: application rate 20 g/ha
Outline: as §2

[23] = test system: Zea mays; test: as above; conditions: application rate 20 g/ha
Outline: as §2

Structure (SMILES) | Matricaria inodora (Efficacy in %) [1] [%] | Setaria viridis (Efficacy in %) [2] [%] | Echinochloa crus-galli (Efficacy in %) [3] [%] | Stellaria media (Efficacy in %) [4] [%] | Pharbitis purpurea (Efficacy in %) [5] [%] | Viola tricolor (Efficacy in %) [6] [%] | Lolium rigidum (Efficacy in %) [7] [%] | Amaranthus retroflexus (Efficacy in %) [8] [%] | Digitaria sanguinalis (Efficacy in %) [9] [%] | Veronica persica (Efficacy in %) [10] [%] | Polygonum convolvulus (Efficacy in %) [11] [%] | Abutilon theophrasti (Efficacy in %) [12] [%] | also measured
CCC(C)C(Sc1cc(-n2c(=O)cc(C(F)(F)F)n(C)c2=O)c(F)cc1Cl)C(=O)NCC1CCCO1 (stereo not shown) [I.5-221] | 100 | 100 | 80 | 90 | 100 | 100 | 80 | 100 | 80 | 100 | 100 | 100 | Triticum aestivum (Efficacy in %) ([13]; application rate 20 g/ha): 20%
CC(C)C(Sc1cc(-n2c(=O)cc(C(F)(F)F)n(C)c2=O)c(F)cc1Cl)C(=O)NCC1CCCO1 (stereo not shown) [I.6-221, 2-({2-Chloro-4-fluoro-5-[3-methyl-2,6-dioxo-4-(trifluoromethyl)-3,6-dihydropyrimidin-1(2H)-yl]phenyl}sulfanyl)-3-methyl-N-(tetrahydrofuran-2-ylmethyl)butanamide] | 100 | 100 | 80 | 80 | 100 | 100 | 80 | 100 | 100 | 100 | 100 | 100 | Alopecurus myosuroides (Efficacy in %) [14]: 90%
CC(Sc1cc(-n2c(=O)cc(C(F)(F)F)n(C)c2=O)c(F)cc1Cl)C(=O)OCC1CCCCO1 (stereo not shown) [I.1-91] | 100 |  |  |  | 100 | 100 |  | 100 |  | 100 | 100 | 100 | Glycine max (Efficacy in %) [15]: 20%; Zea mays (Efficacy in %) [16]: 0%; Matricaria inodora (Efficacy in %) [17]: 100%; Viola tricolor (Efficacy in %) [18]: 100%; Amaranthus retroflexus (Efficacy in %) [19]: 100%; Veronica persica (Efficacy in %) [20]: 100%; Abutilon theophrasti (Efficacy in %) [21]: 100%; Oryza sativa (Efficacy in %) [22]: 10%; Triticum aestivum (Efficacy in %) ([13]; application rate 5 g/ha): 10%; Zea mays (Efficacy in %) [23]: 20%
